Experimental data reported in US20260092071A1, “COMPOUNDS AND COMPOSITIONS AS SMARCA2/4 DEGRADERS AND USES THEREOF” (REGENTS OF THE UNIVERSITY OF MICHIGAN, priority 2022, published 2026).

Legend:
[1] = target: SMARCA4 (Homo sapiens, UniProt P51532); test: HiBiT assay for protein degradation, Hela SMARCA4-HiBiT cells (A series); assay type: cell-based; design: fuse HiBiT to the carboxy terminus of SMARCA2 (Promega CS302365) or SMARCA4 (Promega CS3023225); host or cells: HeLa (CRISPR/Cas9 HiBiT knock-in); conditions: Hela SMARCA4-HiBiT cells, 24 hours treatment; for DC50: read-out: SMARC A4 Hela HiBit DC50; for Dmax: read-out: SMARC A4 Hela HiBit Dmax
In short: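 SMARCA4 degradation was measured in HeLa cells in which HiBiT had been knocked into the SMARCA4 carboxy terminus via CRISPR/Cas9 (Promega CS3023225). Cells were maintained in DMEM with FBS and penicillin-streptomycin. At the end of treatment, SMARCA4 levels were read by lytic HiBiT luminescence (Nano-Glo®, Promega N3050), and data were analyzed with GraphPad Prism.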

[2] = target: SMARCA2 (Homo sapiens, UniProt P51531); test: HiBiT assay for protein degradation, Hela SMARCA2-HiBiT cells (A series); assay type: cell-based; design: Hela cells were genetically modified via CRISPR/Cas9 to fuse HiBiT to the carboxy terminus of SMARCA2; host or cells: HeLa (CRISPR/Cas9 HiBiT knock-in); conditions: Hela SMARCA2-HiBiT cells, 24 hours treatment; for DC50: read-out: SMARC A2 Hela HiBit DC50; for Dmax: read-out: SMARC A2 Hela HiBit Dmax (%);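 on SMARC A2 Hela HiBit Dmax (%): 24 h compound treatment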
In short: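 SMARCA2 degradation was measured in HeLa cells whose endogenous SMARCA2 carries a carboxy-terminal HiBiT tag introduced by CRISPR/Cas9 (Promega CS302365). Cells were maintained in DMEM with FBS and penicillin-streptomycin. SMARCA2 levels were read at the end of the experiment by Nano-Glo® HiBiT lytic luminescence (Promega N3050) and analyzed in GraphPad Prism.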

SMARCA2, sequence (P51531 whole entry): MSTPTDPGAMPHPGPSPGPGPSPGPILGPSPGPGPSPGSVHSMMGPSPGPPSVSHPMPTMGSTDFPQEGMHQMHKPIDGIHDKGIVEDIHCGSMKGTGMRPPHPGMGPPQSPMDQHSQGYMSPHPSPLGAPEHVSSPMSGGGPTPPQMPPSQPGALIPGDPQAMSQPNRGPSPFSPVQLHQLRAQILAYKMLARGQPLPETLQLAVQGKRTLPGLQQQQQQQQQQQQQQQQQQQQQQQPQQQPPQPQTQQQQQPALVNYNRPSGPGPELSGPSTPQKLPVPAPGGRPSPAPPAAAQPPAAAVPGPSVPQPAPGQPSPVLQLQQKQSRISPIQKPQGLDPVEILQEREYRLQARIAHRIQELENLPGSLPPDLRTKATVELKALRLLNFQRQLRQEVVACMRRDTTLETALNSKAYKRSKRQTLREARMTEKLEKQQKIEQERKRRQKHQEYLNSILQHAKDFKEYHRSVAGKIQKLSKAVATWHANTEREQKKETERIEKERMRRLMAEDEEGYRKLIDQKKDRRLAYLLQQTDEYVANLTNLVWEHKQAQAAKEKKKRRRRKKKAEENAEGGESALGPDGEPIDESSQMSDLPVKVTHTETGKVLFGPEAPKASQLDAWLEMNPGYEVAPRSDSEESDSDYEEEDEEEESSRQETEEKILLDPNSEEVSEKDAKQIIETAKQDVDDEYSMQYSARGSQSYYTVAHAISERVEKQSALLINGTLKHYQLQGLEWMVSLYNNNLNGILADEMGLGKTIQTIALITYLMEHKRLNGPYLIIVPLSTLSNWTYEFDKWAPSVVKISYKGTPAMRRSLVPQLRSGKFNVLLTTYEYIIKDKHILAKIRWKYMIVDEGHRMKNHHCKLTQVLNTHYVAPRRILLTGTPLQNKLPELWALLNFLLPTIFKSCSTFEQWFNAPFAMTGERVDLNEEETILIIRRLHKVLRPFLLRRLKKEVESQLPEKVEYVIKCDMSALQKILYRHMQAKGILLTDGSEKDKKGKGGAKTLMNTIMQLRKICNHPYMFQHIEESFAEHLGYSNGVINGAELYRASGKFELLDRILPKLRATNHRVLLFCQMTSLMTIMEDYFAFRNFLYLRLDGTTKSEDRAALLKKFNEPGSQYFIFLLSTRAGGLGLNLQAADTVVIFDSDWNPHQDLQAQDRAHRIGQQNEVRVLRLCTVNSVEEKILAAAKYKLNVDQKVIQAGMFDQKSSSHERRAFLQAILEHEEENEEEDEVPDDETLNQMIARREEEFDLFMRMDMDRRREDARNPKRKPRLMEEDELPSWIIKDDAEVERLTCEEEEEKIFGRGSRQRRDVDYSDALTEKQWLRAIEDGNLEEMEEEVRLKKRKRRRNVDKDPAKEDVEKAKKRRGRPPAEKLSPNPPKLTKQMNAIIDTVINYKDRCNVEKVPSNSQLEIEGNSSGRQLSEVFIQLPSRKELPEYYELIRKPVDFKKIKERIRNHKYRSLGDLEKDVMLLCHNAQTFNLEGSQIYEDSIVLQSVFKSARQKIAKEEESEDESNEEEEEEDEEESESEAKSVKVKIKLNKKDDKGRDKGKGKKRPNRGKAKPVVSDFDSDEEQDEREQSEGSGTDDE
SMARCA4, sequence (P51532 whole entry): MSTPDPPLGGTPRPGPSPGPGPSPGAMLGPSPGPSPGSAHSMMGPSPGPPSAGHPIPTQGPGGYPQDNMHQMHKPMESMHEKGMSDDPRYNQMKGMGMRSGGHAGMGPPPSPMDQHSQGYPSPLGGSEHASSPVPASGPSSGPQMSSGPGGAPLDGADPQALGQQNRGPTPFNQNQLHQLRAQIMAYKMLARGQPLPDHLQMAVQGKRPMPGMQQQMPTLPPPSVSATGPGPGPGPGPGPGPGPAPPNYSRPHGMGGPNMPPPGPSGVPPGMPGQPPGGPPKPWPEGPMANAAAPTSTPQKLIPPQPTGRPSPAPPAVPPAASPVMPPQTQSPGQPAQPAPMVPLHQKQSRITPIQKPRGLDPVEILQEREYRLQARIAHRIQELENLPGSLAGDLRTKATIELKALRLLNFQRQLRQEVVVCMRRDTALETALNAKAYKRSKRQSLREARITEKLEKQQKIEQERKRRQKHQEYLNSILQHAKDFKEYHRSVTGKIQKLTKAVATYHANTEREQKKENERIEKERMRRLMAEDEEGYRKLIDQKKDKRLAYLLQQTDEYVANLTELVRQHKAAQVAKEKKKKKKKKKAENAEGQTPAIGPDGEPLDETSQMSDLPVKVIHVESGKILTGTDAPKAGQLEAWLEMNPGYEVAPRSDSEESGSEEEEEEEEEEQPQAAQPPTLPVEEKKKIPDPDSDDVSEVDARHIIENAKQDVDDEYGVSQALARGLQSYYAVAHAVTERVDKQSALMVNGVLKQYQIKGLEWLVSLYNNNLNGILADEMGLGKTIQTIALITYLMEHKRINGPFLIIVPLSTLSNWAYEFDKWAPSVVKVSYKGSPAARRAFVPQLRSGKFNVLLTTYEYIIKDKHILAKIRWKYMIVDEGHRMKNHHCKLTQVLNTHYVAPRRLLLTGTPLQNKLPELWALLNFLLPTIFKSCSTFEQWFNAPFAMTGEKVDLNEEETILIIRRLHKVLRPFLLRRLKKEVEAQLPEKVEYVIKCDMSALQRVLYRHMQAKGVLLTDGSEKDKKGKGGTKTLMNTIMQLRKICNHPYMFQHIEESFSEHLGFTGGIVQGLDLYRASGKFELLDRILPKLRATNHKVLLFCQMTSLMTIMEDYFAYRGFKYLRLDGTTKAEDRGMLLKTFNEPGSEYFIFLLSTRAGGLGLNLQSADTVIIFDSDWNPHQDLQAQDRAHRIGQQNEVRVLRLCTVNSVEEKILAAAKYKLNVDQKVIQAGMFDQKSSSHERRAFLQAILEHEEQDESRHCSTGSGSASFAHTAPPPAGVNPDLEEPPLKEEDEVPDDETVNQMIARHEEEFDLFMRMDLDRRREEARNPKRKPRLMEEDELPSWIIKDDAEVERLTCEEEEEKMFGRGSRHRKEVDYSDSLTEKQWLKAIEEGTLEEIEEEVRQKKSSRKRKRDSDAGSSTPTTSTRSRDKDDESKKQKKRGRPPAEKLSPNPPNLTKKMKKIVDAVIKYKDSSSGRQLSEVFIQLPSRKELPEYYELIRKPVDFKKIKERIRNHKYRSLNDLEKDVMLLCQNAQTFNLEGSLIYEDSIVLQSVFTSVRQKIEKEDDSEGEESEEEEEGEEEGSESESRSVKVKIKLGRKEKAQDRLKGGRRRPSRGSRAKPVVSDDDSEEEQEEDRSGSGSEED

DC50 [1] [nM] | Dmax [1] [%] | DC50 [2] [nM] | Dmax [2] [%] | SMILES
> 1000 | 50 to 69 | < 10 | > 90 | Cc1ncsc1-c1ccc([C@H](CN2CCOCC2)NC(=O)[C@@H]2C[C@@H](O)CN2C(=O)[C@@H](n2cc([C@H]3CC[C@H](CN4CCC(c5ccc6c(c5)-n5c(nc(=O)c7c(Br)cccc75)C65CCCCC5)CC4)CC3)nn2)C(C)(C)O)cc1 [Compound A160, (2S,4R)-1-((S)-2-(4-((1r,4S)-4-((4-(4′-bromo-5′-oxo-5′H-spiro[cyclohexane-1,7′-indolo[1,2-a]quinazolin]-10′-yl)piperidin-1-yl)methyl)cyclohexyl)-1H-1,2,3-triazol-1-yl)-3-hydroxy-3-methylbutanoyl)-4-hydroxy-N-((R)-1-(4-(4-methylthiazol-5-yl)phenyl)-2-morpholinoethyl)pyrrolidine-2-carboxamide]
100 to 1000 | 50 to 69 | < 10 | > 90 | Cc1nc(C)c(-c2ccc([C@H](CN3CCOCC3)NC(=O)[C@@H]3C[C@@H](O)CN3C(=O)[C@@H](n3cc([C@H]4CC[C@H](CN5CCC(c6ccc7c(c6)-n6c(nc(=O)c8c(Cl)cccc86)C76CCCCC6)CC5)CC4)nn3)C(C)(C)C)cc2)s1 [Compound A161, (2S,4R)-1-((S)-2-(4-((1r,4S)-4-((4-(4′-chloro-5′-oxo-5′H-spiro[cyclohexane-1,7′-indolo[1,2-a]quinazolin]-10′-yl)piperidin-1-yl)methyl)cyclohexyl)-1H-1,2,3-triazol-1-yl)-3,3-dimethylbutanoyl)-N—((R)-1-(4-(2,4-dimethylthiazol-5-yl)phenyl)-2-morpholinoethyl)-4-hydroxypyrrolidine-2-carboxamide]
100 to 1000 | 50 to 69 | < 10 | > 90 | CC(C)(C)[C@@H](C(=O)N1C[C@H](O)C[C@H]1C(=O)N[C@@H](CN1CCOCC1)c1ccc(-c2ccccc2)cc1)n1cc([C@H]2CC[C@H](CN3CCC(c4ccc5c(c4)-n4c(nc(=O)c6c(Cl)cccc64)C54CCCCC4)CC3)CC2)nn1 [Compound A162, (2S,4R)—N—((R)-1-([1,1′-biphenyl]-4-yl)-2-morpholinoethyl)-1-((S)-2-(4-((1r,4S)-4-((4-(4′-chloro-5′-oxo-5′H-spiro[cyclohexane-1,7′-indolo[1,2-a]quinazolin]-10′-yl)piperidin-1-yl)methyl)cyclohexyl)-1H-1,2,3-triazol-1-yl)-3,3-dimethylbutanoyl)-4-hydroxypyrrolidine-2-carboxamide]
100 to 1000 | 50 to 69 | < 10 | > 90 | Cc1ccccc1-c1ccc([C@H](CN2CCOCC2)NC(=O)[C@@H]2C[C@@H](O)CN2C(=O)[C@@H](n2cc([C@H]3CC[C@H](CN4CCC(c5ccc6c(c5)-n5c(nc(=O)c7c(Cl)cccc75)C65CCCCC5)CC4)CC3)nn2)C(C)(C)C)cc1 [Compound A163, (2S,4R)-1-((S)-2-(4-((1r,4S)-4-((4-(4′-chloro-5′-oxo-5′H-spiro[cyclohexane-1,7′-indolo[1,2-a]quinazolin]-10′-yl)piperidin-1-yl)methyl)cyclohexyl)-1H-1,2,3-triazol-1-yl)-3,3-dimethylbutanoyl)-4-hydroxy-N—((R)-1-(2′-methyl-[1,1′-biphenyl]-4-yl)-2-morpholinoethyl)pyrrolidine-2-carboxamide]
100 to 1000 | 50 to 69 | < 10 | > 90 | CC(C)(C)[C@@H](C(=O)N1C[C@H](O)C[C@H]1C(=O)N[C@@H](CN1CCOCC1)c1ccc(-c2ccccc2F)cc1)n1cc([C@H]2CC[C@H](CN3CCC(c4ccc5c(c4)-n4c(nc(=O)c6c(Cl)cccc64)C54CCCCC4)CC3)CC2)nn1 [Compound A164, (2S,4R)-1-((S)-2-(4-((1r,4S)-4-((4-(4′-chloro-5′-oxo-5′H-spiro[cyclohexane-1,7′-indolo[1,2-a]quinazolin]-10′-yl)piperidin-1-yl)methyl)cyclohexyl)-1H-1,2,3-triazol-1-yl)-3,3-dimethylbutanoyl)-N—((R)-1-(2′-fluoro-[1,1′-biphenyl]-4-yl)-2-morpholinoethyl)-4-hydroxypyrrolidine-2-carboxamide]
> 1000 | < 50 | < 10 | > 90 | Cc1ncoc1-c1ccc([C@H](CN2CCOCC2)NC(=O)[C@@H]2C[C@@H](O)CN2C(=O)[C@@H](n2cc([C@H]3CC[C@H](CN4CCC(c5ccc6c(c5)-n5c(nc(=O)c7c(Cl)cccc75)C65CCCCC5)CC4)CC3)nn2)C(C)(C)C)cc1 [Compound A165, (2S,4R)-1-((S)-2-(4-((1r,4S)-4-((4-(4′-chloro-5′-oxo-5′H-spiro[cyclohexane-1,7′-indolo[1,2-a]quinazolin]-10′-yl)piperidin-1-yl)methyl)cyclohexyl)-1H-1,2,3-triazol-1-yl)-3,3-dimethylbutanoyl)-4-hydroxy-N—((R)-1-(4-(4-methyloxazol-5-yl)phenyl)-2-morpholinoethyl)pyrrolidine-2-carboxamide]
> 1000 | < 50 | 10 to 100 | 70 to 90 | Cc1nc(C)c(-c2ccc([C@H](CN3CCOCC3)NC(=O)[C@@H]3C[C@@H](O)CN3C(=O)[C@@H](n3cc([C@H]4CC[C@H](CN5CCC(c6ccc7c(c6)-n6c(nc(=O)c8c(Cl)cccc86)C76CCCCC6)CC5)CC4)nn3)C(C)(C)C)cc2)o1 [Compound A166, (2S,4R)-1-((S)-2-(4-((1r,4S)-4-((4-(4′-chloro-5′-oxo-5′H-spiro[cyclohexane-1,7′-indolo[1,2-a]quinazolin]-10′-yl)piperidin-1-yl)methyl)cyclohexyl)-1H-1,2,3-triazol-1-yl)-3,3-dimethylbutanoyl)-N—((R)-1-(4-(2,4-dimethyloxazol-5-yl)phenyl)-2-morpholinoethyl)-4-hydroxypyrrolidine-2-carboxamide]
> 1000 | < 50 | > 1000 | < 50 | CC(C)(C)[C@@H](C(=O)N1C[C@H](O)C[C@H]1C(=O)N[C@@H](CN1CCOCC1)c1ccc(-c2scnc2C(F)(F)F)cc1)n1cc([C@H]2CC[C@H](CN3CCC(c4ccc5c(c4)-n4c(nc(=O)c6c(Cl)cccc64)C54CCCCC4)CC3)CC2)nn1 [Compound A167, (2S,4R)-1-((S)-2-(4-((1r,4S)-4-((4-(4′-chloro-5′-oxo-5′H-spiro[cyclohexane-1,7′-indolo[1,2-a]quinazolin]-10′-yl)piperidin-1-yl)methyl)cyclohexyl)-1H-1,2,3-triazol-1-yl)-3,3-dimethylbutanoyl)-4-hydroxy-N—((R)-2-morpholino-1-(4-(4-(trifluoromethyl)thiazol-5-yl)phenyl)ethyl)pyrrolidine-2-carboxamide]
100 to 1000 | 50 to 69 | < 10 | > 90 | CC(C)(C)[C@@H](C(=O)N1C[C@H](O)C[C@H]1C(=O)N[C@@H](CN1CCOCC1)c1ccc(-c2cccnc2)cc1)n1cc([C@H]2CC[C@H](CN3CCC(c4ccc5c(c4)-n4c(nc(=O)c6c(Cl)cccc64)C54CCCCC4)CC3)CC2)nn1 [Compound A171, (2S,4R)-1-((S)-2-(4-((1r,4S)-4-((4-(4′-chloro-5′-oxo-5′H-spiro[cyclohexane-1,7′-indolo[1,2-a]quinazolin]-10′-yl)piperidin-1-yl)methyl)cyclohexyl)-1H-1,2,3-triazol-1-yl)-3,3-dimethylbutanoyl)-4-hydroxy-N—((R)-2-morpholino-1-(4-(pyridin-3-yl)phenyl)ethyl)pyrrolidine-2-carboxamide]
> 1000 | < 50 | < 10 | > 90 | CC(C)(C)[C@@H](C(=O)N1C[C@H](O)C[C@H]1C(=O)N[C@@H](CN1CCOCC1)c1ccc(-c2ccncc2)cc1)n1cc([C@H]2CC[C@H](CN3CCC(c4ccc5c(c4)-n4c(nc(=O)c6c(Cl)cccc64)C54CCCCC4)CC3)CC2)nn1 [Compound A172, (2S,4R)-1-((S)-2-(4-((1r,4S)-4-((4-(4′-chloro-5′-oxo-5′H-spiro[cyclohexane-1,7′-indolo[1,2-a]quinazolin]-10′-yl)piperidin-1-yl)methyl)cyclohexyl)-1H-1,2,3-triazol-1-yl)-3,3-dimethylbutanoyl)-4-hydroxy-N—((R)-2-morpholino-1-(4-(pyridin-4-yl)phenyl)ethyl)pyrrolidine-2-carboxamide]
